These compounds were tested against T1, ER (Homo sapiens, UniProt P03372) (assay: ER degradation activity, in-cell western blot analysis in T47D cells). Conditions: 16 hours, Table A does not say which cell line (T47D or MCF7), read-out: Potency (DC50).
T1 construct: host or cells: T47D and MCF7 human breast cancer cells
T1 sequence (P03372 1-595): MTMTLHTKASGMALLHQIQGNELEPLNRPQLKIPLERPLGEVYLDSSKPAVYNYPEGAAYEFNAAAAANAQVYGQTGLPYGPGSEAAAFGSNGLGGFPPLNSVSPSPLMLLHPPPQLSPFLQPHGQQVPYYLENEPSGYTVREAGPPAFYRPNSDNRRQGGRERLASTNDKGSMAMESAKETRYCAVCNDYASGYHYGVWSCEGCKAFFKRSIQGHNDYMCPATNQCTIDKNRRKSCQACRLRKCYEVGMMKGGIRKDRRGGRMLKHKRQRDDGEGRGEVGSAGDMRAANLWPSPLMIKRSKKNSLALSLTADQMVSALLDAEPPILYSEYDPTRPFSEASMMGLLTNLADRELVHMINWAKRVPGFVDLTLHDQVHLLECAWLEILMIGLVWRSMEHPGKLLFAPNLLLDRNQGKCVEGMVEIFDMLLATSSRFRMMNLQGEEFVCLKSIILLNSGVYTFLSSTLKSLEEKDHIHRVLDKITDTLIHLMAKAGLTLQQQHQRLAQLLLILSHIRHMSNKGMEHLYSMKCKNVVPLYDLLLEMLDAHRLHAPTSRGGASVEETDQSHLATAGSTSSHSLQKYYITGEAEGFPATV
Assay type: cell-based
Outline: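 T47D cells grown in DMEM with 10% FBS were treated with compounds for 16 hours at 0.5% DMSO final. ER was detected by in-cell western using 680/800 near-infrared secondary antibodies. Residual ER is given as percent of untreated and DMSO-treated wells set to 100%.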

Compound | DC50
C[C@@H]1Cc2c([nH]c3ccccc23)[C@@H](c2c(F)cc(N3CCC(N4CC(C(=O)N5Cc6cc7c(cc6C5)C(=O)N(C5CCC(=O)NC5=O)C7)C4)CC3)cc2F)N1CC(F)F (stereo partly drawn) [E 120, 3-(6-(1-(1-(4-((1R,3R)-2-(2,2-difluoroethyl)-3-methyl-2,3,4,9-tetrahydro-1H-pyrido[3,4-b]indol-1-yl)-3,5-difluorophenyl)piperidin-4-yl)azetidine-3-carbonyl)-1-oxo-3,5,6,7-tetrahydropyrrolo[3,4-f]isoindol-2(1H)-yl)piperidine-2,6-dione] | 10 to 100 nM
C[C@@H]1Cc2c([nH]c3ccccc23)[C@@H](c2c(F)cc(N3CCC(CN4CCC(CN5Cc6cc7c(cc6C5)C(=O)N(C5CCC(=O)NC5=O)C7=O)CC4)CC3)cc2F)N1CC(F)F (stereo partly drawn) [E 128, 6-((1-((1-(4-((1R,3R)-2-(2,2-difluoroethyl)-3-methyl-2,3,4,9-tetrahydro-1H-pyrido[3,4-b]indol-1-yl)-3,5-difluorophenyl)piperidin-4-yl)methyl)piperidin-4-yl)methyl)-2-(2,6-dioxopiperidin-3-yl)-6,7-dihydropyrrolo[3,4-f]isoindole-1,3(2H,5H)-dione] | < 10 nM
C[C@@H]1Cc2c([nH]c3ccccc23)[C@@H](c2c(F)cc(N3CCC(CN4CCCC(N5Cc6cc7c(cc6C5)C(=O)N(C5CCC(=O)NC5=O)C7=O)CC4)CC3)cc2F)N1CC(F)F (stereo partly drawn) [E 130, 6-(1-((1-(4-((1R,3R)-2-(2,2-difluoroethyl)-3-methyl-2,3,4,9-tetrahydro-1H-pyrido[3,4-b]indol-1-yl)-3,5-difluorophenyl)piperidin-4-yl)methyl)azepan-4-yl)-2-(2,6-dioxopiperidin-3-yl)-6,7-dihydropyrrolo[3,4-f]isoindole-1,3(2H,5H)-dione] | < 10 nM
C[C@@H]1Cc2c([nH]c3ccccc23)[C@@H](c2c(F)cc(N3CCC(CN4CC5(CC(N6Cc7cc8c(cc7C6)C(=O)N(C6CCC(=O)NC6=O)C8=O)C5)C4)CC3)cc2F)N1CC(F)F (stereo partly drawn) [E 131, 6-(2-((1-(4-((1R,3R)-2-(2,2-difluoroethyl)-3-methyl-2,3,4,9-tetrahydro-1H-pyrido[3,4-b]indol-1-yl)-3,5-difluorophenyl)piperidin-4-yl)methyl)-2-azaspiro[3.3]heptan-6-yl)-2-(2,6-dioxopiperidin-3-yl)-6,7-dihydropyrrolo[3,4-f]isoindole-1,3(2H,5H)-dione] | < 10 nM
C[C@@H]1Cc2c([nH]c3ccccc23)[C@@H](c2c(F)cc(N3CCC(CN4CCC5(CC4)CC(N4Cc6cc7c(cc6C4)C(=O)N(C4CCC(=O)NC4=O)C7=O)C5)CC3)cc2F)N1CC(F)F (stereo partly drawn) [E 132, 6-(7-((1-(4-((1R,3R)-2-(2,2-difluoroethyl)-3-methyl-2,3,4,9-tetrahydro-1H-pyrido[3,4-b]indol-1-yl)-3,5-difluorophenyl)piperidin-4-yl)methyl)-7-azaspiro[3.5]nonan-2-yl)-2-(2,6-dioxopiperidin-3-yl)-6,7-dihydropyrrolo[3,4-f]isoindole-1,3(2H,5H)-dione] | 10 to 100 nM
C[C@@H]1Cc2c([nH]c3ccccc23)[C@@H](c2c(F)cc(N3CCC(CN4CCC5(CCC(N6Cc7cc8c(cc7C6)C(=O)N(C6CCC(=O)NC6=O)C8=O)C5)CC4)CC3)cc2F)N1CC(F)F (stereo partly drawn) [E 133, 6-(8-((1-(4-((1R,3R)-2-(2,2-difluoroethyl)-3-methyl-2,3,4,9-tetrahydro-1H-pyrido[3,4-b]indol-1-yl)-3,5-difluorophenyl)piperidin-4-yl)methyl)-8-azaspiro[4.5]decan-2-yl)-2-(2,6-dioxopiperidin-3-yl)-6,7-dihydropyrrolo[3,4-f]isoindole-1,3(2H,5H)-dione] | 10 to 100 nM
C[C@@H]1Cc2c([nH]c3ccccc23)[C@@H](c2c(F)cc(N3CC(CC(=O)N4CC(N5Cc6cc7c(cc6C5)C(=O)N(C5CCC(=O)NC5=O)C7)C4)C3)cc2F)N1CC(F)F (stereo partly drawn) [E 134, 3-(6-(1-(2-(1-(4-((1R,3R)-2-(2,2-difluoroethyl)-3-methyl-2,3,4,9-tetrahydro-1H-pyrido[3,4-b]indol-1-yl)-3,5-difluorophenyl)azetidin-3-yl)acetyl)azetidin-3-yl)-1-oxo-3,5,6,7-tetrahydropyrrolo[3,4-f]isoindol-2(1H)-yl)piperidine-2,6-dione] | 10 to 100 nM

The next lines start with the values.

DC50 | Compound
10 to 100 nM | C[C@@H]1Cc2c([nH]c3ccccc23)[C@@H](c2c(F)cc(N3CCC(N4CC(CN5Cc6cc7c(cc6C5)C(=O)N(C5CCC(=O)NC5=O)C7=O)C4)CC3)cc2F)N1CC(F)F (stereo partly drawn) [E 117, 6-((1-(1-(4-((1R,3R)-2-(2,2-difluoroethyl)-3-methyl-2,3,4,9-tetrahydro-1H-pyrido[3,4-b]indol-1-yl)-3,5-difluorophenyl)piperidin-4-yl)azetidin-3-yl)methyl)-2-(2,6-dioxopiperidin-3-yl)-6,7-dihydropyrrolo[3,4-f]isoindole-1,3(2H,5H)-dione]
> 100 nM | C[C@@H]1Cc2c([nH]c3ccccc23)[C@@H](c2c(F)cc(N3CCC(N4CCC(CN5Cc6cc7c(cc6C5)C(=O)N(C5CCC(=O)NC5=O)C7=O)CC4)CC3)cc2F)N1CC(F)F (stereo partly drawn) [E 118, 6-((1′-(4-((1R,3R)-2-(2,2-difluoroethyl)-3-methyl-2,3,4,9-tetrahydro-1H-pyrido[3,4-b]indol-1-yl)-3,5-difluorophenyl)-[1,4′-bipiperidin]-4-yl)methyl)-2-(2,6-dioxopiperidin-3-yl)-6,7-dihydropyrrolo[3,4-f]isoindole-1,3(2H,5H)-dione]
> 100 nM | C[C@@H]1Cc2c([nH]c3ccccc23)[C@@H](c2c(F)cc(N3CCC(N4CC(C(=O)N5Cc6cc7c(cc6C5)C(=O)N(C5CCC(=O)NC5=O)C7=O)C4)CC3)cc2F)N1CC(F)F (stereo partly drawn) [E 119, 6-(1-(1-(4-((1R,3R)-2-(2,2-difluoroethyl)-3-methyl-2,3,4,9-tetrahydro-1H-pyrido[3,4-b]indol-1-yl)-3,5-difluorophenyl)piperidin-4-yl)azetidine-3-carbonyl)-2-(2,6-dioxopiperidin-3-yl)-6,7-dihydropyrrolo[3,4-f]isoindole-1,3(2H,5H)-dione]
< 10 nM | C[C@@H]1Cc2c([nH]c3ccccc23)[C@@H](c2c(F)cc(N3CC(C(=O)N4CCC(CN5Cc6cc7c(cc6C5)C(=O)N(C5CCC(=O)NC5=O)C7=O)CC4)C3)cc2F)N1CC(F)F (stereo partly drawn) [E 121, 6-((1-(1-(4-((1R,3R)-2-(2,2-difluoroethyl)-3-methyl-2,3,4,9-tetrahydro-1H-pyrido[3,4-b]indol-1-yl)-3,5-difluorophenyl)azetidine-3-carbonyl)piperidin-4-yl)methyl)-2-(2,6-dioxopiperidin-3-yl)-6,7-dihydropyrrolo[3,4-f]isoindole-1,3(2H,5H)-dione]
< 10 nM | C[C@@H]1Cc2c([nH]c3ccccc23)[C@@H](c2c(F)cc(N3CC(C(=O)N4CCC(N5Cc6cc7c(cc6C5)C(=O)N(C5CCC(=O)NC5=O)C7=O)CC4)C3)cc2F)N1CC(F)F (stereo partly drawn) [E 122, 6-(1-(1-(4-((1R,3R)-2-(2,2-difluoroethyl)-3-methyl-2,3,4,9-tetrahydro-1H-pyrido[3,4-b]indol-1-yl)-3,5-difluorophenyl)azetidine-3-carbonyl)piperidin-4-yl)-2-(2,6-dioxopiperidin-3-yl)-6,7-dihydropyrrolo[3,4-f]isoindole-1,3(2H,5H)-dione]
10 to 100 nM | C[C@@H]1Cc2c([nH]c3ccccc23)[C@@H](c2c(F)cc(N3CCC(CN4CC(N5Cc6cc7c(cc6C5)C(=O)N(C5CCC(=O)NC5=O)C7=O)C4)CC3)cc2F)N1CC(F)F (stereo partly drawn) [E 123, 6-(1-((1-(4-((1R,3R)-2-(2,2-difluoroethyl)-3-methyl-2,3,4,9-tetrahydro-1H-pyrido[3,4-b]indol-1-yl)-3,5-difluorophenyl)piperidin-4-yl)methyl)azetidin-3-yl)-2-(2,6-dioxopiperidin-3-yl)-6,7-dihydropyrrolo[3,4-f]isoindole-1,3(2H,5H)-dione]
> 100 nM | C[C@@H]1Cc2c([nH]c3ccccc23)[C@@H](c2c(F)cc(N3CCC(N4CCC(CN5Cc6cc7c(cc6C5)C(=O)N(C5CCC(=O)NC5=O)C7=O)CC4)C3)cc2F)N1CC(F)F (stereo partly drawn) [E 124, 6-((1-(1-(4-((1R,3R)-2-(2,2-difluoroethyl)-3-methyl-2,3,4,9-tetrahydro-1H-pyrido[3,4-b]indol-1-yl)-3,5-difluorophenyl)pyrrolidin-3-yl)piperidin-4-yl)methyl)-2-(2,6-dioxopiperidin-3-yl)-6,7-dihydropyrrolo[3,4-f]isoindole-1,3(2H,5H)-dione]
< 10 nM | C[C@@H]1Cc2c([nH]c3ccccc23)[C@@H](c2c(F)cc(N3CCC(CN4CCC(N5Cc6cc7c(cc6C5)C(=O)N(C5CCC(=O)NC5=O)C7=O)C4)CC3)cc2F)N1CC(F)F (stereo partly drawn) [E 129, 6-(1-((1-(4-((1R,3R)-2-(2,2-difluoroethyl)-3-methyl-2,3,4,9-tetrahydro-1H-pyrido[3,4-b]indol-1-yl)-3,5-difluorophenyl)piperidin-4-yl)methyl)pyrrolidin-3-yl)-2-(2,6-dioxopiperidin-3-yl)-6,7-dihydropyrrolo[3,4-f]isoindole-1,3(2H,5H)-dione]

Source: patent US20240190880A1 (THE REGENTS OF THE UNIVERSITY OF MICHIGAN, priority 2021, published 2024)
